Measurements reported in patent US20250304576A1 (Cancer Research Technology Limited, priority 2022, published 2025).

Tests used:
Recombinant IKKα = biological target: T1, Recombinant IKKα (Homo sapiens, UniProt O15111); experiment: DELFIA IKKα kinase assay (apparent Ki, Cheng-Prusoff); assay type: biochemical
T1 construct: purchased Millipore, Dundee, UK
T1 sequence (O15111 1-745): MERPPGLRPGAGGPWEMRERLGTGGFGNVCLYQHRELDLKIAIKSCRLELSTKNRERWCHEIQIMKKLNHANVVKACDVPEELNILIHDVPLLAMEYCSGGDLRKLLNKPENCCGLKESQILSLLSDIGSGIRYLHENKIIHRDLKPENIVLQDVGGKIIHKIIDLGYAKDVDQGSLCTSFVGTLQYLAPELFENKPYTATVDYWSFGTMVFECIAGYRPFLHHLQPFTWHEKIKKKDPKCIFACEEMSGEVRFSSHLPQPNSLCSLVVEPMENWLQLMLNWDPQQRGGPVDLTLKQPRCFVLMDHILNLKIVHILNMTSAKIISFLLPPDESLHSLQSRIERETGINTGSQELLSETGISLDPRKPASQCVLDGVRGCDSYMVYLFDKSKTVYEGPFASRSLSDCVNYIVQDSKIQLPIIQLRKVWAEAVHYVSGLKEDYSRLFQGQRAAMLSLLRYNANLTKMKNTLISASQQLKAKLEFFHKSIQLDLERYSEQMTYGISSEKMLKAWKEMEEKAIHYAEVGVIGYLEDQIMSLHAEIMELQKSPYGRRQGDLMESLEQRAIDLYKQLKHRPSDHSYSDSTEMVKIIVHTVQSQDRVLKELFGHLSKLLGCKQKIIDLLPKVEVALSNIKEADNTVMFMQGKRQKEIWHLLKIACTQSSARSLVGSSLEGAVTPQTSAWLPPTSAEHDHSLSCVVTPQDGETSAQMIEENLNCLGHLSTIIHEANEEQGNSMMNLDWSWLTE
Outline: (§1)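 DELFIA time-resolved fluorescence (ex 340/em 615 nm) quantified phosphorylation of a biotinylated IκB-α Ser32 peptide (0.375 μM) by 37 nM recombinant IKKα or IKKβ. Reactions used 40 μM ATP, Tris pH 7.5 buffer with MgCl2, DTT and BSA, 60 min at 30° C. Cheng-Prusoff equation gave apparent Ki.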

Recombinant IKKβ = biological target: T2, Recombinant IKKβ (Homo sapiens, UniProt O14920); experiment: DELFIA IKKβ kinase assay (apparent Ki, Cheng-Prusoff); assay type: biochemical
T2 construct: purchased Millipore, Dundee, UK
T2 sequence (O14920 1-756): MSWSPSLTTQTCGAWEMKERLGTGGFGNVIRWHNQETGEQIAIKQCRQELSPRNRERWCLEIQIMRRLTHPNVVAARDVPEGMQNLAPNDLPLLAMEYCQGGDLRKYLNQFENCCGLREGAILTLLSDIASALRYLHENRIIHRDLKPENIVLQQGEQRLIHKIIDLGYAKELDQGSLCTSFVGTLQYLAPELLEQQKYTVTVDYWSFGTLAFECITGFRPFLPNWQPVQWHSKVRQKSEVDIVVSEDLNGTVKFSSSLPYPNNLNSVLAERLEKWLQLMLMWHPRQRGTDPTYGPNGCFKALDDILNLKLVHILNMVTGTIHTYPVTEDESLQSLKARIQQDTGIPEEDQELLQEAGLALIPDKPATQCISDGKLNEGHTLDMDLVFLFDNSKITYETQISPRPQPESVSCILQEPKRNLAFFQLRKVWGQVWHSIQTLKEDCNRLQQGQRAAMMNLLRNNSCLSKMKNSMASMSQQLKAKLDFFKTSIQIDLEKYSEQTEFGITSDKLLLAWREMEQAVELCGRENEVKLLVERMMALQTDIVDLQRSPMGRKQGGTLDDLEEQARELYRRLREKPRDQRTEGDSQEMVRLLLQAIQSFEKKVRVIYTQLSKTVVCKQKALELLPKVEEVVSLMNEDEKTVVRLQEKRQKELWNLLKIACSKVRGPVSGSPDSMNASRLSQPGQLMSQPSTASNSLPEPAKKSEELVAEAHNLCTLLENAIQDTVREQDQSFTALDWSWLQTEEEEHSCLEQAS
Outline: as §1

[1] = DELFIA assay (first line of an example)
[2] = non-italicised figure: DELFIA assay

Row | Ki (Recombinant IKKα; [1]) [nM] | Ki (Recombinant IKKβ; [1]) [nM] | Ki (Recombinant IKKα; [2]) [nM] | Ki (Recombinant IKKβ; [2]) [nM] | Structure (SMILES)
1 | 12 | 386 | – | – | Nc1n[nH]c2c(C#CC3CC3)cc(-c3ccnc(NC4COC4)c3)cc12 [Example 284, 7-(Cyclopropylethynyl)-5-(2-(oxetan-3-ylamino)pyridin-4-yl)-1H-indazol-3-amine]
2 | 545 | 1160 | – | – | CC(C)(C)C#Cc1cc(-c2ccnc3[nH]c(C4CCCC4)cc23)cc2c(N)n[nH]c12 [Example 295, 5-(2-Cyclopentyl-1H-pyrrolo[2,3-b]pyridin-4-yl)-7-(3,3-dimethylbut-1-yn-1-yl)-1H-indazol-3-amine]
3 | – | – | 15 | 105 | Nc1nccc(-c2ccc3[nH]nc(N)c3c2)c1C#CCC1CCNCC1 [Example 97, 5-(2-Amino-3-(3-(piperidin-4-yl)prop-1-yn-1-yl)pyridin-4-yl)-1H-indazol-3-amine]
4 | – | – | 571 | 5030 | Cc1cc(S(N)(=O)=O)ccc1-c1cc(-c2ccnc(N)c2)cc2c(N)n[nH]c12 [Example 126, 4-(3-Amino-5-(2-aminopyridin-4-yl)-1H-indazol-7-yl)-3-methylbenzenesulfonamide]
5 | – | – | 12 | 293 | Nc1n[nH]c2ccc(-c3ccnc(NC(=O)Nc4ccccc4)c3)cc12 [Example 50, 1-(4-(3-Amino-1H-indazol-5-yl)pyridin-2-yl)-3-phenylurea]
6 | – | – | 15 | 1110 | CC(C)(C)C#Cc1cc(-c2ccnc(NC(=O)C3CC3)c2)cc2c(N)n[nH]c12 [Example 167, N-(4-(3-Amino-7-(3,3-dimethylbut-1-yn-1-yl)-1H-indazol-5-yl)pyridin-2-yl)cyclopropane carboxamide]
7 | – | – | 48 | 1720 | Nc1n[nH]c2ccc(-c3ccnc(NC(=O)Nc4ccc(Cl)cc4)c3)cc12 [Example 63]
8 | – | – | 6 | 26 | Nc1n[nH]c2c(Br)cc(-c3ccnc4[nH]ccc34)cc12 [Example 5, 7-Bromo-5-(1H-pyrrolo[2,3-b]pyridin-4-yl)-1H-indazol-3-amine]
9 | – | – | 237 | 3500 | Nc1n[nH]c2ccc(-c3ccnc(NC(=O)Nc4cccc(Oc5ccccc5)c4)c3)cc12 [Example 56, 1-(4-(3-Amino-1H-indazol-5-yl)pyridin-2-yl)-3-(3-phenoxyphenyl)urea]
10 | – | – | 38 | 194 | Nc1cc(-c2cc(C(F)(F)F)c3[nH]nc(N)c3c2)ccn1 [Example 3, 5-(2-Aminopyridin-4-yl)-7-(trifluoromethyl)-1H-indazol-3-amine]
11 | – | – | 24 | 1110 | COCC(=O)Nc1cc(-c2cc(C#CC(C)(C)C)c3[nH]nc(N)c3c2)ccn1 [Example 175, N-(4-(3-Amino-7-(3,3-dimethylbut-1-yn-1-yl)-1H-indazol-5-yl)pyridin-2-yl)-2-methoxyacetamide]
12 | – | – | 100 | 1900 | CC(C)c1ccccc1NC(=O)Nc1cc(-c2ccc3[nH]nc(N)c3c2)ccn1 [Example 68, 1-(4-(3-Amino-1H-indazol-5-yl)pyridin-2-yl)-3-(2-isopropylphenyl)urea]
13 | – | – | 438 | 8100 | CCNC(=O)Nc1cc(-c2cc(C#CC(C)(C)C)c3[nH]nc(N)c3c2)ccn1 [Example 187, 1-(4-(3-Amino-7-(3,3-dimethylbut-1-yn-1-yl)-1H-indazol-5-yl)pyridin-2-yl)-3-ethylurea]
14 | 8 | 46 | – | – | CN(C)CCCNC(=O)c1cc2c(-c3ccc4[nH]nc(N)c4c3)ccnc2[nH]1 [Example 247, 4-(3-Amino-1H-indazol-5-yl)-N-(3-(dimethylamino)propyl)-1H-pyrrolo[2,3-b]pyridine-2-carboxamide]
15 | 19 | 278 | – | – | COC(=O)Nc1cc(-c2cc(CCC(C)(C)C)c3[nH]nc(N)c3c2)ccn1 [Example 293, Methyl (4-(3-amino-7-(3,3-dimethylbutyl)-1H-indazol-5-yl)pyridin-2-yl)carbamate]
16 | – | – | 46 | 412 | Nc1cc(-c2cc(-c3ccn[nH]3)c3[nH]nc(N)c3c2)ccn1 [Example 133, 5-(2-Aminopyridin-4-yl)-7-(1H-pyrazol-5-yl)-1H-indazol-3-amine]
17 | 24 | 940 | – | – | Cc1n[nH]cc1Nc1cc(-c2cc(C#CC(C)(C)C)c3[nH]nc(N)c3c2)ccn1 [Example 313, 7-(3,3-Dimethylbut-1-yn-1-yl)-5-(2-((3-methyl-1H-pyrazol-4-yl)amino)pyridin-4-yl)-1H-indazol-3-amine]
18 | – | – | 20 | 611 | CC(C)(C)C#Cc1cc(-c2ccnc(NC(=O)CO)c2)cc2c(N)n[nH]c12 [Example 174, N-(4-(3-Amino-7-(3,3-dimethylbut-1-yn-1-yl)-1H-indazol-5-yl)pyridin-2-yl)-2-hydroxyacetamide]
19 | – | – | 35 | 1110 | COCCNc1cc(-c2cc(C#CC(C)(C)C)c3[nH]nc(N)c3c2)ccn1 [Example 162, 7-(3,3-dimethylbut-1-yn-1-yl)-5-(2-((2-methoxyethyl)amino)pyridin-4-yl)-1H-indazol-3-amine]
20 | 40 | 2510 | – | – | Nc1n[nH]c2c(C#CCCCCN3CCCCC3)cc(-c3ccnc4[nH]ccc34)cc12 [Example 213, 7-(6-(Piperidin-1-yl)hex-1-yn-1-yl)-5-(1H-pyrrolo[2,3-b]pyridin-4-yl)-1H-indazol-3-amine]
21 | 14 | 108 | – | – | Nc1cc(-c2cc(-c3ccc(CCN4CCOCC4)cc3)c3[nH]nc(N)c3c2)ccn1 [Example 329, 5-(2-Aminopyridin-4-yl)-7-(4-(2-morpholinoethyl)phenyl)-1H-indazol-3-amine]
22 | – | – | 571 | > 10000 | Nc1n[nH]c2ccc(-c3ccnc(NC(=O)NCCc4ccccc4)c3)cc12 [Example 46, 1-(4-(3-Amino-1H-indazol-5-yl)pyridin-2-yl)-3-phenethylurea]
23 | 25 | 70 | – | – | CC(=O)Nc1cc(-c2cc(-c3ccncc3)c3[nH]nc(N)c3c2)ccn1 [Example 197, N-(4-(3-Amino-7-(pyridin-4-yl)-1H-indazol-5-yl)pyridin-2-yl)acetamide]
24 | – | – | > 3000 | > 30000 | COCCCNc1cc(-c2cc(C#CC(C)(C)C)c3[nH]nc(N)c3c2)ccn1 [Example 163, 7-(3,3-Dimethylbut-1-yn-1-yl)-5-(2-((3-methoxypropyl)amino)pyridine-4-yl)-1H-indazol-3-amine]
25 | – | – | 19 | 109 | CC(C)(C)c1cc2c(-c3ccc4[nH]nc(N)c4c3)ccnc2[nH]1 [Example 9, 2-(Tert-butyl)-4-(3-amino-1H-indazol-5-yl)-7-azaindole]
26 | 5 | 30 | – | – | COCCNC(=O)c1cc2c(-c3ccc4[nH]nc(N)c4c3)ccnc2[nH]1 [Example 240, 4-(3-Amino-1H-indazol-5-yl)-N-(2-methoxyethyl)-1H-pyrrolo[2,3-b]pyridine-2-carboxamide]
27 | – | – | 340 | > 10000 | CNCCCNc1cc(-c2ccc3[nH]nc(N)c3c2)ccn1 [Example 32, N^1-(4-(3-Amino-1H-indazol-5-yl)pyridin-2-yl)-N^3-methylpropane-1,3-diamine]
28 | – | – | 38 | 922 | Nc1nccc(-c2ccc3[nH]nc(N)c3c2)c1C#CCCN1CCOCC1 [Example 94, 5-(2-Amino-3-(4-morpholinobut-1-yn-1-yl)pyridin-4-yl)-1H-indazol-3-amine]
29 | – | – | 76 | 1590 | COCCNC(=O)Nc1cc(-c2ccc3[nH]nc(N)c3c2)ccn1 [Example 43, 1-(4-(3-Amino-1H-indazol-5-yl)pyridin-2-yl)-3-(2-methoxyethyl)urea]
